Measured values as given in PubChem BioAssay AID256 (DTP/NCI, 2004).
Values joined by “and” are separate entries in the source; they are usually repeats but may differ in a detail not shown here. Identical values can stand only once. Inconclusive results and toxic doses are left out.

Tested on: CD2F1 mice, L1210 leukemia ip, survival T/C
Experiment: NCI In Vivo Anticancer Drug Screen. Data for tumor model L1210 Leukemia (intraperitoneal) in CD2F1 (CDF1) mice
Settings: endpoint: mean survival time, higher = longer survival
Summary of the method: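 Read-out first: treated-group measurement over vehicle-control measurement, expressed as a ratio. Animals bore a transplanted tumor line and were dosed with compound or vehicle.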

[1] = dose: 25.0 mg/kg/injection, schedule: Q01DX009 (ip), vehicle: saline
[2] = dose: 50.0 mg/kg/injection, schedule: Q01DX009 (ip), vehicle: saline
[3] = dose: 25.0 mg/kg/injection, schedule: Q01DX009 (ip), vehicle: saline with Tween-80
[4] = dose: 50.0 mg/kg/injection, schedule: Q01DX009 (ip), vehicle: saline with Tween-80
[5] = dose: 100.0 mg/kg/injection, schedule: Q01DX009 (ip), vehicle: saline with Tween-80
[6] = dose: 100.0 mg/kg/injection, schedule: Q04DX003 (ip), vehicle: saline with Tween-80
[7] = dose: 100.0 mg/kg/injection, schedule: Q01DX001 (ip), vehicle: saline with Tween-80
[8] = dose: 200.0 mg/kg/injection, schedule: Q01DX001 (ip), vehicle: saline with Tween-80
[9] = dose: 200.0 mg/kg/injection, schedule: Q01DX009 (ip), vehicle: saline with Tween-80
[10] = dose: 12.5 mg/kg/injection, schedule: Q01DX009 (ip), vehicle: saline with Tween-80

Question: How did the T/C (dose: 12.5 mg/kg/injection, schedule: Q01DX009 (ip), vehicle: distilled water + Tween-80) turn out when CC(=O)Oc1c[nH]c(=O)[nH]c1=O was run?
Answer: 97 % of control and 112 % of control

Question: And the T/C (dose: 25.0 mg/kg/injection, schedule: Q01DX009 (ip), vehicle: distilled water + Tween-80)?
Answer: 97 % of control and 98 % of control

Question: And the T/C (dose: 50.0 mg/kg/injection, schedule: Q01DX009 (ip), vehicle: distilled water + Tween-80)?
Answer: 102 % of control and 110 % of control

Question: And the T/C (dose: 100.0 mg/kg/injection, schedule: Q01DX009 (ip), vehicle: distilled water + Tween-80)?
Answer: 114 % of control and 105 % of control

Question: What about the T/C (dose: 200.0 mg/kg/injection, schedule: Q01DX009 (ip), vehicle: distilled water + Tween-80) of the same molecule?
Answer: 114 % of control and 105 % of control

Question: And the T/C (dose: 400.0 mg/kg/injection, schedule: Q01DX009 (ip), vehicle: distilled water + Tween-80)?
Answer: 117 % of control and 124 % of control

Question: What does the source list for O=C(C[n+]1ccc2ccccc2c1)c1ccc(Br)cc1?
Answer: T/C (dose: 12.5 mg/kg/injection, schedule: Q04DX003 (ip), vehicle: saline): 98 % of control; T/C [1]: 98 % of control; T/C (dose: 25.0 mg/kg/injection, schedule: Q04DX003 (ip), vehicle: saline): 98 % of control; T/C [2]: 102 % of control; T/C (dose: 50.0 mg/kg/injection, schedule: Q04DX003 (ip), vehicle: saline): 101 % of control; T/C (dose: 100.0 mg/kg/injection, schedule: Q04DX003 (ip), vehicle: saline): 97 % of control

Question: With CC1=CC(=O)C2(C)C(C)=C(C)C12C (configuration not stated) as the molecule, how does the T/C [3] read?
Answer: 104 % of control

Question: And the T/C [4]?
Answer: 100 % of control

Question: And the T/C [5]?
Answer: 102 % of control

Question: How did the T/C [1] turn out when N=C(N)SCc1cccs1 was run?
Answer: 100 % of control

Question: And the T/C [2]?
Answer: 103 % of control

Question: And the T/C (dose: 100.0 mg/kg/injection, schedule: Q01DX009 (ip), vehicle: saline)?
Answer: 95 % of control

Question: Which results are given for COC1=[C]([Hg][Br])C(OC)OC1OC (configuration not stated)?
Answer: T/C (dose: 5.0 mg/kg/injection, schedule: Q01DX001 (ip), vehicle: saline): 98 % of control; T/C (dose: 10.0 mg/kg/injection, schedule: Q01DX001 (ip), vehicle: saline): 102 % of control; T/C (dose: 20.0 mg/kg/injection, schedule: Q01DX001 (ip), vehicle: saline): 110 % of control

Question: For COC(=O)CC1CCS(=O)(=O)C1 (configuration not stated), which T/C [6] is on record?
Answer: 98 % of control

Question: What about the T/C (dose: 200.0 mg/kg/injection, schedule: Q04DX003 (ip), vehicle: saline with Tween-80) of the same molecule?
Answer: 93 % of control

Question: And the T/C (dose: 400.0 mg/kg/injection, schedule: Q04DX003 (ip), vehicle: saline with Tween-80)?
Answer: 92 % of control

Question: O=S(=O)(CS(=O)(=O)Nc1ccccc1)Nc1ccccc1 was tested. Which T/C [6] did it give?
Answer: 109 % of control

Question: Which results are given for Cc1ccc(N)nc1[N+](=O)[O-]?
Answer: T/C (dose: 100.0 mg/kg/injection, schedule: Q01DX009 (ip), vehicle: other): 100 % of control; T/C (dose: 100.0 mg/kg/injection, schedule: Q04DX003 (ip), vehicle: other): 102 % of control; T/C (dose: 200.0 mg/kg/injection, schedule: Q01DX009 (ip), vehicle: other): 96 % of control; T/C (dose: 200.0 mg/kg/injection, schedule: Q04DX003 (ip), vehicle: other): 96 % of control; T/C (dose: 400.0 mg/kg/injection, schedule: Q01DX009 (ip), vehicle: other): 100 % of control; T/C (dose: 400.0 mg/kg/injection, schedule: Q04DX003 (ip), vehicle: other): 96 % of control

Question: Which T/C (dose: 12.5 mg/kg/injection, schedule: Q01DX005 (ip), vehicle: water) does the source give for Cn1c(=O)c2c(nc(N3CCOCC3)n2CCCNCC(O)c2ccc(O)cc2)n(C)c1=O (configuration not stated) here?
Answer: 102 % of control

Question: And the T/C (dose: 25.0 mg/kg/injection, schedule: Q01DX005 (ip), vehicle: water)?
Answer: 104 % of control

Question: And the T/C (dose: 50.0 mg/kg/injection, schedule: Q01DX005 (ip), vehicle: water)?
Answer: 100 % of control

Question: What about the T/C (dose: 100.0 mg/kg/injection, schedule: Q01DX005 (ip), vehicle: water) of the same molecule?
Answer: 98 % of control

Question: What about the T/C (dose: 200.0 mg/kg/injection, schedule: Q01DX005 (ip), vehicle: water) of the same molecule?
Answer: 104 % of control

Question: CCN(C)N=Nc1ccc(C(N)=O)cc1 was tested. Which T/C (dose: 18.75 mg/kg/injection, schedule: Q01DX009 (ip), vehicle: Klucel (hydroxypropylcellulose) (HPC)) did it give?
Answer: 103 % of control

Question: And the T/C (dose: 75.0 mg/kg/injection, schedule: Q01DX009 (ip), vehicle: Klucel (hydroxypropylcellulose) (HPC))?
Answer: 156 % of control

Question: And the T/C (dose: 100.0 mg/kg/injection, schedule: Q01DX009 (oral), vehicle: saline with Tween-80)?
Answer: 115 % of control

Question: What about the T/C (dose: 200.0 mg/kg/injection, schedule: Q01DX009 (oral), vehicle: saline with Tween-80) of the same molecule?
Answer: 120 % of control

Question: Which results are given for CC(=O)NC1C(OS(=O)(=O)c2ccc(C)cc2)C(NC(C)=O)C(OC(C)=O)C(OC(C)=O)C1OC(C)=O (configuration not stated)?
Answer: T/C [7]: 97 % of control; T/C [8]: 103 % of control; T/C (dose: 400.0 mg/kg/injection, schedule: Q01DX001 (ip), vehicle: saline with Tween-80): 101 % of control

Question: For CCCCCCCCCCCCCCOS(=O)(=O)O, which T/C (dose: 37.5 mg/kg/injection, schedule: Q01DX009 (ip), vehicle: saline) is on record?
Answer: 93 % of control

Question: And the T/C (dose: 75.0 mg/kg/injection, schedule: Q01DX009 (ip), vehicle: saline)?
Answer: 93 % of control

Question: How did the T/C [5] turn out when COc1ccccc1N/N=C1/CCCNC1=O was run?
Answer: 98 % of control

Question: And the T/C [9]?
Answer: 101 % of control

Question: What about the T/C (dose: 400.0 mg/kg/injection, schedule: Q01DX009 (ip), vehicle: saline with Tween-80) of the same molecule?
Answer: 95 % of control

Question: CSc1cc(NC(C)=O)nc2nc[nH]c12 was tested. Which T/C (dose: 100.0 mg/kg/injection, schedule: Q01DX001 (ip), vehicle: Klucel (hydroxypropylcellulose) (HPC)) did it give?
Answer: 98 % of control

Question: And the T/C (dose: 200.0 mg/kg/injection, schedule: Q01DX001 (ip), vehicle: Klucel (hydroxypropylcellulose) (HPC))?
Answer: 97 % of control

Question: How did the T/C [10] turn out when C=C(Br)CNC(=O)C(C)(C)C was run?
Answer: 96 % of control

Question: And the T/C [3]?
Answer: 96 % of control

Question: And the T/C [4]?
Answer: 100 % of control

Question: And the T/C [5]?
Answer: 93 % of control

Question: Which T/C (dose: 50.0 mg/kg/injection, schedule: Q04DX002 (ip), vehicle: saline) does the source give for CC1CC(C)(C)NC(C)(C(C)CC(C)(C)C)O1 (configuration not stated) here?
Answer: 108 % of control

Question: And the T/C [7]?
Answer: 93 % of control

Question: And the T/C (dose: 100.0 mg/kg/injection, schedule: Q04DX002 (ip), vehicle: saline)?
Answer: 104 % of control

Question: And the T/C [8]?
Answer: 93 % of control

Question: And the T/C (dose: 200.0 mg/kg/injection, schedule: Q04DX002 (ip), vehicle: saline)?
Answer: 93 % of control

Question: For CCCCC(O)C(C)C (configuration not stated), which T/C [4] is on record?
Answer: 100 % of control

Question: And the T/C [5]?
Answer: 103 % of control

Question: And the T/C [9]?
Answer: 106 % of control

Question: What does the source list for CN1CCC(C#N)(c2ccccn2)CC1?
Answer: T/C (dose: 5.0 mg/kg/injection, schedule: Q01DX009 (ip), vehicle: saline with Tween-80): 95 % of control; T/C (dose: 5.0 mg/kg/injection, schedule: Q01DX009 (ip), vehicle: saline): 103 % of control; T/C (dose: 10.0 mg/kg/injection, schedule: Q01DX009 (ip), vehicle: saline with Tween-80): 91 % of control; T/C (dose: 10.0 mg/kg/injection, schedule: Q01DX009 (ip), vehicle: saline): 106 % of control; T/C (dose: 20.0 mg/kg/injection, schedule: Q01DX009 (ip), vehicle: saline): 97 % of control

Question: With NC(CS)=NC1CCCCC1 as the molecule, how does the T/C (dose: 12.5 mg/kg/injection, schedule: Q04DX002 (ip), vehicle: saline with Tween-80) read?
Answer: 104 % of control

Question: And the T/C (dose: 25.0 mg/kg/injection, schedule: Q04DX002 (ip), vehicle: saline with Tween-80)?
Answer: 96 % of control

Question: With Nc1ncc2ccccc2c1-c1ccc(NC(=O)CCCl)cc1 as the molecule, how does the T/C (dose: 25.0 mg/kg/injection, schedule: Q04DX003 (ip), vehicle: DMSO) read?
Answer: 98 % of control

Question: And the T/C (dose: 50.0 mg/kg/injection, schedule: Q04DX003 (ip), vehicle: DMSO)?
Answer: 102 % of control

Question: What about the T/C (dose: 100.0 mg/kg/injection, schedule: Q04DX003 (ip), vehicle: DMSO) of the same molecule?
Answer: 95 % of control

Question: And the T/C (dose: 200.0 mg/kg/injection, schedule: Q04DX003 (ip), vehicle: DMSO)?
Answer: 102 % of control

Question: What about the T/C (dose: 400.0 mg/kg/injection, schedule: Q04DX003 (ip), vehicle: DMSO) of the same molecule?
Answer: 90 % of control

Question: O=C(CBr)N1c2ccccc2Sc2ccc(C(F)(F)F)cc21 was tested. Which T/C (dose: 1.56 mg/kg/injection, schedule: Q01DX009 (ip), vehicle: other) did it give?
Answer: 100 % of control

Question: What about the T/C (dose: 3.13 mg/kg/injection, schedule: Q01DX009 (ip), vehicle: other) of the same molecule?
Answer: 97 % of control

Question: What about the T/C (dose: 6.25 mg/kg/injection, schedule: Q01DX009 (ip), vehicle: other) of the same molecule?
Answer: 102 % of control

Question: And the T/C (dose: 12.5 mg/kg/injection, schedule: Q01DX009 (ip), vehicle: other)?
Answer: 96 % of control

Question: And the T/C (dose: 25.0 mg/kg/injection, schedule: Q01DX009 (ip), vehicle: other)?
Answer: 102 % of control

Question: How did the T/C [10] turn out when ClC1CCC[N-]C1.ClC1CCC[N-]C1.O=C(O)CC(=O)O.[Pt+2] (configuration not stated) was run?
Answer: 102 % of control

Question: What about the T/C [3] of the same molecule?
Answer: 100 % of control

Question: And the T/C [4]?
Answer: 104 % of control

Question: What about the T/C [5] of the same molecule?
Answer: 104 % of control

Question: And the T/C [9]?
Answer: 94 % of control

Question: CCOC(=O)C(C)C(C)=O (configuration not stated) was tested. Which T/C (dose: 100.0 mg/kg/injection, schedule: Q01DX001 (ip), vehicle: saline) did it give?
Answer: 104 % of control

Question: And the T/C (dose: 200.0 mg/kg/injection, schedule: Q01DX001 (ip), vehicle: saline)?
Answer: 98 % of control

Question: What about the T/C (dose: 400.0 mg/kg/injection, schedule: Q01DX001 (ip), vehicle: saline) of the same molecule?
Answer: 101 % of control
